Entries after “also recorded” stand apart in the source; their conditions may differ.
Experiments:
[1] = system: P. aeruginosa PA14 biofilm; experiment: MBEC assay, anaerobic biofilm prevention; format: cell-based, Pseudomonas aeruginosa
Method: (§1) In some examples, biofilm prevention and dissolution were measured via a high-throughput biofilm assay (MBEC Physiology and Genetics Assay) consisting of a 96-well plate into which a 96-peg plastic lid fits. This lid also fits over a standard 96-well plate, which was subsequently used to test the efficacy of iron chelators. Inoculum was prepared by diluting (30-fold) a 1.0 McFarland suspension of P. aeruginosa PA14 in TSB. 150 μl, was dispensed into each of the 60 inner wells, while 200 μl, of sterile trypticase soy broth (TSB) was placed in each perimeter well. For dissolution experiments, plates were incubated at 37° C. for 24 h, and were transferred to an anaerobic chamber for 24 h at 37° C. in anaerobic TSB containing 50 mM KNO3. Biofilms were then exposed to conalbumin and/or Ferrozine® for 24 h. Each treatment was complemented with the addition of 80 μM ferrous ammonium sulfate. After treatment, lids were rinsed once in 50 mM HEPES, air dried for 10 min and quantified by crystal violet staining. For biofilm prevention, anaerobic inoculum was amended with conalbumin and/or Ferrozine®. Media was replaced every 24 h by transferring the MBEC lid to a sterile plate containing growth media+/− treatments, and biofilms were allowed to develop for 168 h. Biomass was quantified as described above. Biological triplicates and six technical replicates (n=18) were used for each treatment.

[2] = system: P. aeruginosa PA14 mature biofilms; experiment: MBEC assay, dissolution of mature biofilms; format: cell-based, Pseudomonas aeruginosa; conditions: 100 or 200 μM Ferrozine®; 24 h exposure
Method: as §1

[3] = system: P. aeruginosa; experiment: Planktonic growth rates with iron chelators; format: cell-based, Pseudomonas aeruginosa
[4] = system: P. aeruginosa PA14 wild type; experiment: Swarming motility, wild type; format: cell-based, Pseudomonas aeruginosa; conditions: 100 μM in the swarming agar
Method: (§2) FIG. 6. Δphz1/2 has increased swarming motility. Quantification of swarming motility. Images of three swarming plates for each strain or condition were captured, exported to Adobe Photoshop and the agar surface covered by the swarms was quantified using the Analysis Tools.
(§3) Swimming, swarming and twitching motilities were determined as previously described.

[5] = system: P. aeruginosa PA14 Δphz1/2; experiment: Swarming motility, Δphz1/2; format: cell-based, Pseudomonas aeruginosa; conditions: 100 μM in the swarming agar
Method: as §2, §3

[6] = system: P. aeruginosa PA14 Δphz1/2 colonies; experiment: Colony biofilm morphology and surface coverage, Δphz1/2; format: cell-based, Pseudomonas aeruginosa; conditions: for Effect on rugosity and surface coverage of colonies: 0.2 M of either compound added to the agar
[7] = system: P. aeruginosa PA14 wild-type colonies; experiment: Colony biofilm morphology, wild type; format: cell-based, Pseudomonas aeruginosa; conditions: 0.2 M of either compound added to the agar
Method: FIG. 8. […] Each day colonies from three independent experiments were scanned and their surface coverage was determined. Representative images of colonies at day 2, 4 and 6 are shown (A; scale bar is 1 cm). The data in (B) show the average surface coverage and standard deviation for the three independent experiments. (C) Phenazine titrations. […] Surface coverage of colonies from three independent experiments was determined after incubation at 20° C. for 7 days. Bars indicate the standard deviation.
Colony biofilms were grown on agar containing 1% tryptone as previously described. Three colonies from independent spottings were documented for 8 days using an Epson scanner.

[8] = system: P. aeruginosa PA14 phenazine null strain (Δphz); experiment: Flow cell biofilm development, phenazine null strain, 1% TSB; conditions: 10 μM PCA in the medium flow of the Δphz mutant; by day 6
[9] = system: P. aeruginosa PA14 wild type; experiment: Flow cell biofilm development, wild type, 1% TSB with or without conalbumin; conditions: wild type; for Rescue of the conalbumin-induced biofilm defect: 10 μM phenazine added to conalbumin-treated 1% TSB, 6 days
[10] = system: P. aeruginosa PA14 Δphz1/2; experiment: Flow cell biofilms in 10% LB, COMSTAT analysis; format: cell-based, Pseudomonas aeruginosa
Method: Flow cell biofilms were grown under constant flow at 22° C. in 1.5×4×34 mm flow cells. Continuous flow of 10% LB was supplied with a peristaltic pump at a constant rate of […]. An early stationary-phase culture was diluted to an optical density at 500 nm of around 0.1 and 300 μl were inoculated into the flow cell. Strains expressing eyfp constitutively were used to visualize the biofilms. Upon inoculation, cells were allowed to attach in the absence of flow for 1.5 h before flow was resumed. Developing biofilms were imaged in 3 dimensions using a Leica confocal microscope. eYFP was excited with a 488 nm laser beam kept at constant intensity throughout the experiment, and emission from 510 to 618 nm was collected. Routinely, the Applicant observed that the distribution of bacterial cells throughout the colonized surface varied depending on the region of the flow cell, probably due to factors such as flow or accumulation of planktonic cells. To assure reproducibility, all images were acquired from an area set in the middle of the flow cell. Three images of duplicate flow cell lines were recorded and at least two independent experiments were performed.
To measure the impact of phenazines on biofilm formation directly, a flow cell system was first used to grow wild-type and Δphz1/2 biofilms. In this system, the wild type formed heterogeneous biofilms that after 4 days developed large and abundant microcolonies (FIG. 7A). Biofilms of Δphz1/2 were flatter and consisted of fewer and smaller aggregates scattered throughout the field of view (FIG. 7B). The morphology of 4-day-old biofilms was analyzed using COMSTAT. A fixed threshold value and connected volume filtration were used for all image stacks. Table 6 summarizes the values calculated for mean biofilm thickness, substratum coverage, number of microcolonies at the substratum, surface-to-volume ratio and maximum biofilm thickness for three independent experiments. […] PCA was not tested under these conditions. The mean thickness, the number of microcolonies and the total biomass volume all increased, reaching numbers similar or even higher than those observed for the wild type (Table 6).

[11] = system: P. aeruginosa PA14 Δphz mutant; experiment: Intracellular NADH/NAD^+ ratio in stationary phase cultures; format: cell-based, Pseudomonas aeruginosa; conditions: for Effect on intracellular NADH/NAD^+ ratios: stationary phase, 30 mM nitrate, pyocyanin in the micromolar range
Method: (A) Growth and pyocyanin production for wild type P. aeruginosa PA14 grown aerobically in 10 ml LB in 18×150 mM tubes. (B) NADH/NAD^+ ratios for cultures grown under the same conditions as those described in part (A). At 7 hours, pyocyanin production in the wild type cultures was visible by eye. 45 μM (half the expected final concentration) was added to the Δphz cultures to be tested for complementation, and 15 mM KNO3 was added to cultures to be tested for the effect of an additional electron acceptor. At 9 hours, pyocyanin in the wild type cultures had increased to near-maximum concentrations, so a second dose of pyocyanin or KNO3 was added to the appropriate cultures, for final concentrations of 90 μM and 30 mM, respectively. Water was added to negative controls. Eleven hours after inoculation, and 2 hours after the addition of the final dose of pyocyanin, NAD(H) was extracted and assayed for each culture. (C), NADH/NAD^+ ratios for cultures treated as in part (B), but with varying concentrations of pyocyanin added. (D) NADH and NAD^+ concentrations for cultures described in (B), normalized to OD (500 nm). Error bars represent the standard deviations of triplicate samples. OD, optical density. wt, wild type.
Two×1 ml of culture were sampled into two separate microcentrifuge tubes and centrifuged at 16,000×g for 1 min. Supernatant was removed and pellets were resuspended in 300 μl of 0.2 M NaOH (for NADH extraction) or 0.2 M HCl (for NAD^+ extraction). […] Supernatants were transferred to fresh tubes and stored at −80° C. until quantification.
A master reagent mix was prepared with 1× Bicine buffer (2.0 M, pH 8.0), 8× water, 1×80 mM EDTA, 2×100% EtOH, 2×4.2 mM thiazolyl blue (MTT), and 4×16.6 mM phenazine ethosulfate. […] The microtiter plate was incubated at 30° C., mixed by brief shaking, and read every 30-60 seconds for absorbance at 570 nm, which is the spectral peak of MTT that increases upon reduction. Slopes arising from plots of absorbance at 570 nm over time were generated for NADH and NAD^+ standards as well as all samples. […]

[12] = system: P. aeruginosa PA14 Δphz mutant; experiment: Pyruvate excretion, HPLC of culture filtrates; format: cell-based, Pseudomonas aeruginosa; conditions: 50 μM pyocyanin added to the Δphz mutant upon entry into stationary phase
Method: FIG. 13. Wild type P. aeruginosa PA14 excretes pyruvate in stationary phase, and addition of pyocyanin to Δphz mutant cultures restores the pyruvate excretion phenotype. Cultures were inoculated into MOPS synthetic medium amended with 50 mM glucose (initial OD (500 nm)=0.03). To complement pyruvate excretion, 50 μM pyocyanin was added to the Δphz culture at the time when pyocyanin reached its maximum concentration in the wild type cultures (approximately 12 hours after inoculation). 20 μl of culture filtrates at the 24-hour time point were loaded onto an anion exchange column and subjected to an isocratic gradient in 5 mM H2SO4. Pyruvate peaks (1305, 1310) are indicated by arrows. The elution time of pyruvate drifts slightly but averages around 10.5 minutes. Results shown are representative of three separate experiments. Other peak identities are described in the text.
Two hundred μl were sampled from MOPS-glucose cultures (10 ml in an 18×150 mm test tube) at regular intervals and filtered (0.2 μm pore). In cases where repeated sampling from the same culture would alter the total culture volume by more than 10%, multiple identical cultures were inoculated from the same pre-culture and sampled sequentially. […] Compounds were detected by UV absorbance at 210 nm. Absolute concentrations of pyruvate were calculated using a standard curve for pyruvate diluted in MOPS buffer. […]

[13] = system: Pseudomonas aeruginosa genes/operons; experiment: DNA microarrays and quantitative RT-PCR; format: cell-based; conditions: P. aeruginosa PA14
Text: Strikingly, mexGHI-opmD and PA2274 were previously shown to be regulated by the PA14 quorum sensing network that controls the production of virulence factors (including phenazines). Through mutational analysis, it is shown that pyocyanin is the physiological signal for the upregulation of these quorum sensing controlled genes during stationary phase and that the response is mediated by the transcription factor SoxR. Our results implicate phenazines as signaling molecules in both P. aeruginosa PA14 and PAO1. Examples are shown in the paper: Dietrich et al. 2006, The phenazine pyocyanin is a terminal signaling factor in the quorum sensing network of Pseudomonas aeruginosa, Molecular Microbiology Vol. 61, No. 5, page 1308-1321, incorporated herein by reference in its entirety.

[14] = system: P. aeruginosa PA14 siderophore null strain (ΔpvdAΔpchE); experiment: Flow cell biofilm development, siderophore null strain, 1% TSB; conditions: 10 μM PYO
[15] = 4 day-old biofilms, Δphz1/2, 25 μM pyocyanin

O.O=S(=O)([O-])c1ccc(-c2nc(-c3ccccn3)nnc2-c2ccc(S(=O)(=O)O)cc2)cc1.[Na+] [Ferrozine®, 3-(2-Pyridyl)-5,6-diphenyl-1,2,4-triazine-p,p′-disulfonic acid monosodium salt hydrate]
Reduction of biofilm accumulation ([1]; 100 μM Ferrozine®, ˜10 μM Fe(II) and 10 μM Fe(III) present): 24% | Reduction of biofilm accumulation ([1]; 200 μM Ferrozine®): reduced it slightly further | Dissolution of mature biofilm [2]: ~20% | Effect on planktonic growth rates [3]: Neither compound affected planktonic growth rates

O=C(O)c1cccc2nc3ccccc3nc12 [PCA, Phenazine-1-carboxylic acid]
Effect on swarming motility [4]: had no effect on the wild type | Effect on swarming motility [5]: significantly decreased the motility of the Δphz1/2 mutant | Effect on surface coverage of colonies ([6]; 0.1M PCA, titration): sufficient to decrease surface coverage of Δphz1/2 colonies to wild-type levels | Effect on rugosity and surface coverage of colonies [6]: significantly decreased rugosity and surface coverage of Δphz1/2 colonies | Effect on surface coverage of colonies ([6]; higher concentrations of PCA (up to 0.4M)): had no additional effects | Effect on the structure of colonies [7]: did not noticeably affect the structure of wild-type colonies | Increase of biofilm biomass [8]: four times | Rescue of the conalbumin-induced biofilm defect [9]: rescued the defect | Increase of biofilm biomass compared to biofilms treated with conalbumin alone ([9]; PCA added to conalbumin-treated medium, day 6): 13 factor | Wild type biofilm development with PCA added to the control medium ([9]; no conalbumin): developed similarly with respect to structure and biomass regardless of whether PCA was added

Cn1c2cccc(=O)c-2nc2ccccc21 [PYO, Pyocyanin]
Effect on Δphz1/2 flow cell biofilms ([10]; 25 μM pyocyanin): larger microcolonies and thicker biofilms resulted | % Coverage at substratum [10, 15]: 15.2 ± 2.46% | Average colony volume [10, 15]: 8170 μm^3 | Average size of colonies at substratum [10, 15]: 102.6 ± 31 μm^2 | Average thickness [10, 15]: 5.6 ± 1.6 | Maximum thickness [10, 15]: 57.5 ± 1.9 | Roughness coefficient [10, 15]: 1.3 | Surface to volume ratio [10, 15]: 6.6 ± 0.6 μm^2/μm^3 | Total biomass ([10]; 4 day-old biofilms, Δphz1/2, 25 μM pyocyanin in the medium from the beginning): 4.3 ± 1 μm^3/μm^2 | Number of microcolonies ([10]; 4 day-old biofilms, Δphz1/2, 25 μM pyocyanin, minimum microcolony size at the substratum 10 μm^2): 8 ± 1.5 | Effect on swarming motility [4]: had no inhibitory effect on swarming of either the wild type or Δphz1/2 | Effect on swarming motility [5]: had no inhibitory effect on swarming of either the wild type or Δphz1/2 | Increased surface coverage compared to wild-type colonies ([6]; 0.1 M pyocyanin): 50% | Effect on rugosity and surface coverage of colonies [6]: significantly decreased rugosity and surface coverage of Δphz1/2 colonies | Agar surface covered more than wild-type colonies ([6]; pyocyanin 0.2M or higher): 35% | Effect on the structure of colonies [7]: did not noticeably affect the structure of wild-type colonies | Effect on NADH/NAD^+ ratio ([11]; 90 μM oxidized pyocyanin added to Δphz mutant cultures): reduced the NADH/NAD^+ ratio to the wild type level | Effect on intracellular NADH/NAD^+ ratios [11]: effected decreases in intracellular NADH/NAD^+ ratios | Pyruvate excretion phenotype [12]: complemented the pyruvate excretion phenotype | Effect on gene expression [13]: elicits the upregulation of genes/operons that function in transport; also recorded: downregulates genes involved in ferric iron acquisition | Rescue without Fe(OH)3(s) relative to rescue with Fe(OH)3(s) addition [14]: 2 times | Rescue of the conalbumin-induced biofilm defect [9]: did not rescue the conalbumin-induced biofilm defect

O=[N+]([O-])[O-].[K+] [Nitrate, KNO3]
Effect on intracellular NADH/NAD^+ ratios [11]: effected decreases in intracellular NADH/NAD^+ ratios
